Results on four compounds are retold here after US20190263796A1, “LIM KINASE INHIBITORS, PHARMACEUTICAL COMPOSITION AND METHOD OF USE IN LIMK-MEDIATED DISEASES” (CELLIPSE, priority 2016, published 2019).

For assay [1], the system named is Phospho-Ser3-Cofilin/Total Cofilin. The assay can be described thus: Western blot cofilin phosphorylation, K-562. The class given is cell-based. The following applies: Homo sapiens; K562 cells; 2 h. The protocol: K-562 cell line was originally purchased from the Leibniz-Institut Deutsche Sammlung von Mikroorganismen und Zellkulturen GmbH (DSMZ). K-562 cells are cultured in RPMI 1640 10% (v/v) FBS supplemented with 100 U/mL^−1 penicillin, 0.1 mg·mL^−1 streptomycin (PAN Biotech P06-07100). Cells were maintained at 37° C. with 5% CO2.
(§1) In a 6 wells plate (Falcon 353046), 2·10^6 cells in 1.5 mL medium are treated for 2 h with compounds. Cells are then collected and cell lysis is performed at 4° C. using RIPA buffer supplemented with protease inhibitors cocktail (Sigma-Aldrich P8340) and phosphatase inhibitors cocktail (Sigma-Aldrich P5726). Following centrifugation 30 min 15000 g 4° C., supernatants are mixed with Laemmli buffer and denaturation is performed by heating 5 min 95° C. 10 μL of samples are subjected to electrophoresis on 15% SDS-PAGE. After electro-transfer (Mini Transblot, Bio-Rad), the PVDF membrane (Merck-Millipore Immobilon P IPVH00010) is blocked with Tris Buffered Saline, pH 7.4 (TBS) with 0.1% Tween 20 and 5% BSA for 1 h RT under agitation. The membrane was rinsed 3 times 10 min at room temperature under agitation with TBS, 0.1% Tween-20 (TBST) and then 1 h at room temperature with anti-phospho-Ser3-cofilin (Cell Signaling Technology #3313, 1/1000 dilution) antibody or anti-cofilin (Cell Signaling Technology #3312, 1/1000 dilution) diluted in TBS, 0.1% Tween 20 and 1% BSA. The membrane is then rinsed 3 times 10 min at room temperature under agitation in TBST and incubated for 1 h with anti-rabbit secondary antibody, horseradish peroxidase conjugated (Jackson Immunoresearch #711-036-152) under agitation at room temperature. After three washes 10 min at room temperature in TBST, the detection of total or phosphorylated cofilin was performed using chemiluminescence kit ECL™ Plus (GE Healthcare RPN2132). For each concentration of compound, ratio between phosphorylated cofilin and total cofilin is determined. This ratio is then expressed as percentage of control ratio (i.e., ratio from DMSO treated cells). IC50 Phospho-Ser3-Cofilin/Total Cofilin is then determined.

A further assay concerns the target LIMK1(h) (Homo sapiens, UniProt P53667). The assay can be described thus: LIMK1 kinase assay (Eurofins Panlabs, radiometric). The class given is biochemical. Also on record: purchased Eurofins Panlabs Inc. (contract assay service).
Assay [2] has as its system Phospho-Ser3-Cofilin/Total Cofilin. The assay can be described thus: Western blot cofilin phosphorylation, MOLM-14. The following applies: MOLM-14 cells, 2 h. The class given is cell-based. The procedure:
MOLM-14 cell line was originally purchased from the American Type Culture Collection (ATCC). MOLM-14 cells are cultured in MEM alpha 10% (v/v) FBS supplemented with 100 U/mL^−1 penicillin, 0.1 mg·mL^−1 streptomycin (PAN Biotech P06-07100). Cells were maintained at 37° C. with 5% CO2.
as §1
In general terms: A western blot detects proteins with antibodies after separation by electrophoresis.

A further assay relates to MV4-11 cells. The assay can be described thus: Cell proliferation assay (PrestoBlue), MV4-11. It counts as cell-based. The following applies: Homo sapiens, 48 h. The protocol: MV4-11 cell line was originally purchased from the American Type Culture Collection (ATCC). MV4-11 cells are cultured in RPMI 1640 10% (v/v) FBS supplemented with 100 U/mL^−1 penicillin, 0.1 mg·mL^−1 streptomycin (PAN Biotech P06-07100) and 2 mM Glutamine (Sigma-Aldrich 59202C). Cells were maintained at 37° C. with 5% CO2.
The assay was performed in 96 wells microplate (Greiner Bioone 655090). MV4-11 cells are seeded at 5,000 cells per well. Compounds (or equivalent amounts of DMSO) are then added and cells are allowed to grow for 48 h. Proliferation is evaluated using PrestoBlue assay according to manufacturer recommendations. Results are expressed as GI50 (Growth Inhibition 50%: concentration at which proliferation is inhibited of 50%) in comparison to DMSO controls.

Assay [3] relates to Phospho-Ser3-Cofilin/Total Cofilin. Description: Western blot cofilin phosphorylation, THP-1. The class given is cell-based. The following applies: Homo sapiens; THP-1 cells; 2 h. The procedure: THP-1 cell line was originally purchased from the Leibniz-Institut Deutsche Sammlung von Mikroorganismen und Zellkulturen GmbH (DSMZ). THP-1 cells are cultured in RPMI 1640 20% (v/v) FBS supplemented with 100 U/mL^−1 penicillin, 0.1 mg·mL^−1 streptomycin (PAN Biotech P06-07100). Cells were maintained at 37° C. with 5% CO2.
In a 6 wells plate (Falcon 353046), 2·10^6 cells in 1.5 mL medium are treated for 2 h with compounds. Cells are then collected and cell lysis is performed at 4° C. using RIPA buffer supplemented with protease inhibitors cocktail (Sigma-Aldrich P8340) and phosphatase inhibitors cocktail (Sigma-Aldrich P5726). Following centrifugation 30 min 15000 g 4° C., supernatants are mixed with Laemmli buffer and denaturation is performed by heating 5 min 95° C. 10 μL of samples are subjected to electrophoresis on 15% SDS-PAGE. After electro-transfer (Mini Transblot, Bio-Rad), the PVDF membrane (Merck-Millipore Immobilon P IPVH00010) is blocked with Tris Buffered Saline, pH 7.4 (TBS) with 0.1% Tween 20 and 5% BSA for 1 h RT under agitation. […] For each concentration of compound, ratio between phosphorylated cofilin and total cofilin is determined. This ratio is then expressed as percentage of control ratio (i.e., ratio from DMSO treated cells). IC50 Phospho-Ser3-Cofilin/Total Cofilin is then determined.

Assay [4] has the same test system. Description: Western blot cofilin phosphorylation, HL-60. The following applies: HL-60 cells, 2 h. It counts as cell-based. The protocol:
HL-60 cell line was originally purchased from the Leibniz-Institut Deutsche Sammlung von Mikroorganismen und Zellkulturen GmbH (DSMZ). HL-60 cells are cultured in RPMI 1640 10% (v/v) FBS supplemented with 100 U/mL^−1 penicillin, 0.1 mg·mL^−1 streptomycin (PAN Biotech P06-07100). Cells were maintained at 37° C. with 5% CO2.
as §1

Assay [5] shares this test system. Description: Western blot cofilin phosphorylation, MOLM-13. It counts as cell-based. The following applies: Homo sapiens, MOLM-13 cells. The protocol:
MOLM-13 cell line was originally purchased from the Leibniz-Institut Deutsche Sammlung von Mikroorganismen und Zellkulturen GmbH (DSMZ). MOLM-13 cells are cultured in RPMI 1640 20% (v/v) FBS supplemented with 100 U/mL^−1 penicillin, 0.1 mg·mL^−1 streptomycin (PAN Biotech P06-07100). Cells were maintained at 37° C. with 5% CO2.
as §1

The term IC50 denotes the point on the concentration scale where inhibition reaches its midpoint. Usually GI50 stands for the concentration at which growth is held to half of that of the control. The low end stands for greater sensitivity of the cells, the high end for lower sensitivity of the cells.

Where two headings read alike, the source gives them in different places.

LIMK1(h), sequence (P53667 whole entry): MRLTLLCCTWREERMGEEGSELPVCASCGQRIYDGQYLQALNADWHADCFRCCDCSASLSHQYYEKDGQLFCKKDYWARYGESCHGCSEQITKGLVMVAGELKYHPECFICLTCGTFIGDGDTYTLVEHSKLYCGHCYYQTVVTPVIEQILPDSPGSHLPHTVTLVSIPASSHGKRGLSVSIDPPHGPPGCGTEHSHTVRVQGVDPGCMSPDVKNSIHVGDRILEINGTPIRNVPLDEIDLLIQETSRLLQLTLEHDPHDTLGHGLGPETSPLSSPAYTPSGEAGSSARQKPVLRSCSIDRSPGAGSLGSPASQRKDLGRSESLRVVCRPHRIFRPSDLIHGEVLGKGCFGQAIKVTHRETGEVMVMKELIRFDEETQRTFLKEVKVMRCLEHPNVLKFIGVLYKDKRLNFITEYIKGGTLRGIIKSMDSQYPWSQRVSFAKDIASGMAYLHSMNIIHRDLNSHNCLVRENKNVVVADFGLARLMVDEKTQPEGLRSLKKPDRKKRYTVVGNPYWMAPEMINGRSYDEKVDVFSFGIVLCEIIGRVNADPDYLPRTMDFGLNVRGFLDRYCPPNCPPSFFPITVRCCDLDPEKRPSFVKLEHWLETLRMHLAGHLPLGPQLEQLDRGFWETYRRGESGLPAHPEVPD
Description for LIMK1(h): Compounds were tested in a LIMK1 assay performed by Eurofins Panlabs Inc. LIMK1 (h) is incubated with 8 mM MOPS pH 7.0, 0.2 mM EDTA, 0.6 mg/mL cofilin, 10 mM Magnesium acetate and [gamma-33P]-ATP. The reaction is initiated by the addition of the Mg/ATP mix. After incubation for 40 min at room temperature, the reaction is stopped by the addition of phosphoric acid to a concentration of 0.5%. […] IC50 LIMK1 is then determined.

As to `CC(C)(C)c1nc(-c2cccc(NS(=O)(=O)c3c(F)cccc3F)c2F)c(-c2ccnc(Nc3ccccc3)n2)s1` [Compound 1, N-(3-(2-(tert-butyl)-5-(2-(phenylamino)pyrimidin-4-yl)thiazol-4-yl)-2-fluorophenyl)-2,6-difluorobenzenesulfonamide], the half-inhibitory concentration (IC50) is 0.2 to 1 µM in assay [1]; 0.01 to 0.1 µM on LIMK1(h); 0.01 to 0.1 µM on LIMK1(h) (read-out: IC50 LIMK1, Table 5, value reported in part II.1); < 0.2 µM in assay [2] (Homo sapiens). Further, in the assay with MV4-11 cells, the GI50 is ≤ 1 µM.

In the case of `O=S(=O)(Nc1cccc(-c2nc(CCO)sc2-c2ccnc(Nc3ccccc3)n2)c1F)c1c(F)cccc1F` [Compound 8, 2,6-difluoro-N-(2-fluoro-3-(2-(2-hydroxyethyl)-5-(2-(phenylamino)pyrimidin-4-yl)thiazol-4-yl)phenyl)benzenesulfonamide], the 50% inhibitory concentration (IC50) was < 0.2 µM in assay [1]; < 0.2 µM in assay [3]; < 0.01 µM at LIMK1(h) (15 μM ATP, Table 2, read-out: IC50 LIMK1); < 0.2 µM in assay [2] (Homo sapiens); < 0.2 µM in assay [4] (Homo sapiens). The GI50 in the assay on MV4-11 cells is ≤ 1 µM.

`O=S(=O)(Nc1cccc(-c2nc(CCO)sc2-c2ccnc(Nc3ccccc3)n2)c1F)c1c(F)cccc1F` [8 (Na)]: the IC50 was < 0.01 µM at LIMK1(h) (15 μM ATP, Table 8, read-out: IC50 LIMK1); < 0.2 µM in assay [5] (2 h); < 0.2 µM in assay [2]; < 0.2 µM in assay [4].

On to `CNC(=O)Cc1nc(-c2cccc(NS(=O)(=O)c3c(F)cccc3F)c2F)c(-c2ccnc(Nc3ccccc3)n2)s1` [Compound 9, 2-(4-(3-(2,6-difluorophenylsulfonamido)-2-fluorophenyl)-5-(2-(phenylamino)pyrimidin-4-yl)thiazol-2-yl)-N-methylacetamide], for which the concentration for half-maximal inhibition (IC50) was < 0.2 µM in assay [1]; < 0.2 µM in assay [3]; < 0.2 µM in assay [5] (MOLM-13, 2 h); < 0.2 µM in assay [2] (Homo sapiens). This compound also gave a 50% growth inhibitory concentration (GI50) in the assay on MV4-11 cells of 1 to 5 µM.
